Converted amounts (≈) assume the structure as drawn. No end group written: not given here.

As a reminder, the IC50 is the midpoint of a concentration-inhibition curve.

One assay deals with T1, enzyme I (Escherichia coli, UniProt P08839).
T1 construct: 3 µM each of purified HPr and enzyme I (Mao et al., 1995); made in house
Kind of assay: biochemical. Also noted: species or system E. coli.
Conditions: not given
From the text: Fig. 2. Assays for the screening, selection and characterization of inhibitory compounds from combinatorial libraries. Reaction products that can be determined experimentally are boxed. The inhibitory compound X can be in soluble form, immobilized on a filamentous phage, or bound to a microtiter well. The transporter for GlcNAc (shaded in grey) contains the IIA, IIB and IIC functional units as domains of a single polypeptide chain. • (a) Binding of Enzyme I to immobilized ligands, e.g. filamentous phages from a phage display library or synthetic peptides from a combinatorial peptide library was detected using [^1251]-Enzyme I and autoradiography. • (b) Phosphorylation by Enzyme I. To identify peptides and filamentous phages displaying a peptide which can be phosphorylated by Enzyme 1, support based peptide libraries and immobilized peptide-displaying phages were incubated over night with enzyme I in the presence of [^32P]phosphoenolpyruvate, and the phosphorylated species were detected with a PhosphorImager. […] A conventional and well established assay to colorimetrically detect the formation of inorganic phosphate has been adapted to the specific needs. The assay can be performed in microtiter plates and quantitated with a microplate photoreader. Another assay to monitor phosphatase activity of soluble compounds is based on the detection of pyruvate which is continuously produced from phosphoenolpyruvate whenever enzyme I is dephosphorylated. The enzyme I-specific phosphatase activity of soluble compounds can be detected from the pyruvate burst. The rate of pyruvate formation is monitored with lactate dehydrogenase and NADH. The assay can be performed in microtiter plates and quantitated with a microplate photoreader. • (d) Inhibition of in vitro PTS activity. The inhibitory activity of soluble compounds can be measured quantitatively in the sugar phosphotransferase assay in the presence of the purified PTS proteins and with [^14C]GlcNAc ([^14C]N-acetyl-glucosamine) or (14C] Glc ([^14C]glucose) as terminal phosphate acceptor (Emi et al., 1982). • (e) Inhibition of PTS activity in bacteria. Compounds that specifically interfere with the PTS can also be detected in bacteria. Indicator E. coli (or any other bacteria) will be plated an two defined minimal salts media containing either glucose or a nonPTS Substrate e.g. lactose as the only carbon source. Compounds from chemical libraries are applied to both cultures.
Inhibition of phosphotransferase activity by soluble peptides. This assay measures the inhibition of enzyme I dependent sugar phosphorylation activity. […] The purified N-acetylglucosamine transporter (II^GlcNAc) of E.coli (Mukhija and Erni, 1996) was used as the sugar specific component. The reaction mixture contained per 100 µl, 100 µg phosphatidyl glycerol from egg yolk (Sigma), 50 mM KPi, pH 7.5, 2.5 mM dithiothreitol, 2.5 mM NaF, 5 mM MgCl2, […] (potassium salt, Sigma), 0.5 mM [U-^14C]GlcNAc (New England Nuclear; 56.3 mCi/mmol, diluted to 1000 cpm/nmol), and 3 µM each of purified HPr and enzyme I (Mao et al., 1995). The reaction was started by addition of 0.1 µg of II^GlcNAc. After incubation for 30 min at 37°C, the reaction was stopped by adding 1 ml ice-cold water. GlcNAc-6-Phosphate was separated from free GlcNAc by anion-exchange chromatography on AG-1-X2 (50-100 mesh, Biorad). Activity is expressed as nmoles of sugar-P formed after 30 min. The HPr concentration was adjusted such that it was rate limiting in the overall phosphotransferase reaction. The inhibitory peptides were added to concentrations of 25 µM to 10 mM. Phosphorylation of GlcNAc in the absences of peptide was taken as 100%.
KKFHLRK [peptide 1, KKFHLRK] showed a concentration for half-maximal inhibition (IC50) of 150 µM.

Still in this assay, the particulars now being: peptides from support-based combinatorial libraries; 30 min at 37°C, HPr rate limiting.
As to KKFALRK [compound 2, KKFALRK], the “inhibition IC50” value is given as “none”.

Still in this assay, the particulars now being: peptides from support-based combinatorial libraries; 30 min at 37°C, HPr rate limiting; read-out: inhibition IC50.
On to KKWHRRKK [compound 7], for which the half-maximal inhibitory concentration (IC50) is 300 µM.

With KKWHKRKK [compound 8], the half-maximal inhibitory concentration (IC50) was 440 µM.

KKFDLRK [compound 3, KKFDLRK]: the concentration for half-maximal inhibition (IC50) stood at 820 µM.

For the compound KKFHIRKR [compound 9], the half-inhibitory concentration (IC50) was determined as 160 µM.

For the compound KGWHKRKK [compound 6], the IC50 was 530 µM.

For the compound KKWHLRKR [compound 5], the IC50 stood at 30 µM.

Staying with this assay, now noted: peptides identified by phage display; 30 min at 37°C, HPr rate limiting; read-out: inhibition IC50.
As for Ac-DGARLHYLF [compound 23], the IC50 is 7600 µM.

In the case of RHITLF [compound 28, RHITLF], the half-maximal inhibitory concentration (IC50) was found to be 1380 µM.

Turning to RHRTLF [compound 25, RHRTLF], the IC50 amounted to 410 µM.

Regarding RLHYLF [compound 21, RLHYLF], the IC50 stood at 375 µM.

DGARLHYLF [compound 22]: the half-maximal inhibitory concentration (IC50) amounted to 1200 µM.

Consider RHWSIF [compound 24, RHWSIF], for which the half-inhibitory concentration (IC50) was determined as 400 µM.

In the case of GLRFGKTRVHYLVLG [compound 14], the IC50 amounted to 25 µM.

As to RHYLLF [compound 26, RHYLLF], the IC50 came to 500 µM.

On to RIHFIPRRGR [compound 20], for which the IC50 came out at 280 µM.

For the compound MSRHRN [compound 29, MSRHRN], the IC50 was 760 µM.

Regarding KISRHGKRGK [compound 18], the IC50 was 140 µM.

With KMSRHRKPGA [compound 16], the concentration for half-maximal inhibition (IC50) stood at 100 µM.

SGRKSTRVHHWLLVL [compound 15]: the IC50 worked out at 60 µM.

Turning to RHITSL [compound 27, RHITSL], the 50% inhibitory concentration (IC50) is 650 µM.

On to KISRHGRPTG [compound 19], for which the 50% inhibitory concentration (IC50) came to 1070 µM.

The subject of a further assay is E. coli K-12 UT580. Kind of assay: Growth inhibition assay (filter discs on LB soft agar). The assay is classed as cell-based. The following applies: E. coli K-12 UT580, LB agar, over night at 37°C. The source says:
Fig. 4. Growth inhibition of E. coli K12 UT580. […]
With KKWHLRKR [compound 5], the “growth inhibition MIC” value amounted to 63.0 µM.

Turning to KKFHLRK [peptide 1, KKFHLRK], the “growth inhibition MIC” value was 125.8 µM.

For a further assay, the system named is E. coli K-12 UT580. In words: microbe, parasite or virus in culture. As to conditions: Escherichia coli, K12UT580, 24 h, read-out: growth inhibition MIC.
Protocol: Growth inhibition assay. An over night culture of E. coli K-12 UT580 grown in LB-medium was diluted 1:30 into soft agar (0.7% agarose in LB broth) at 40°C, and 3 ml of the diluted cell suspension were spread an LB agar plates. Filter discs (4.4 mm diameter) were placed in regular intervals on the solidified top agar. To each filter was added 10 µl of one of the different peptide stock solutions (20 µM to 80 µM). The agar plates were incubated over night at 37°C. The area of the clear zone around each filter disc was determined. The clear area is taken as a measure for the growth inhibitory activity of the peptide.
Growth inhibition of E. coli K12 UT580. Peptides were added to filter discs and placed onto a cell culture in LB soft agar. The clear zones are indicative of growth inhibition (panel A).
As for `CN(C)[C@@H]1C(O)=C(C(N)=O)C(=O)[C@@]2(O)C(O)=C3C(=O)c4c(O)cccc4[C@@](C)(O)[C@H]3C[C@@H]12` [tetracycline], the MIC is 2.5 µM (≈ 1.11 µg/mL).

Values taken from EP0866075B1, “Method to treat microbial infections by uncoupling of phosphotransferase system and appropriate agents therefor” (Arpida AG,, priority 1997, dated 1998).
